Assay results reported in patent US12252457B2, “Compositions and methods for reducing tactile dysfunction, anxiety, and social impairment” (President and Fellows of Harvard College, priority 2018, dated 2025).
Read-outs that look alike come from different tables or passages of the source.

Key:
[1] = test system: genetic and environmental mouse models of ASD; assay: Tactile PPI, air puff response and startle amplitude after acute midazolam or isoguvacine in ASD mouse models; format: in vivo; conditions: 2 mg/kg i.p.
Experimental: FIGS. 19A-19N show acute administration of the peripherally-restricted GABAA receptor agonist isoguvacine improves tactile hypersensitivity in five genetic and one environmental model of ASD. […] Two-way ANOVA with post-hoc Sidak's test, *, p<0.05. FIG. 19B: Response to a light air puff stimulus alone in mice following i.p. administration of either saline or 2 mg/kg midazolam treatment. Responses are expressed as percent of startle response to a 125 dB noise. Two-way ANOVA with post-hoc Sidak's test, *, p<0.05. FIG. 19C: Magnitude of startle response to a 125 dB noise in mice following i.p. administration of either saline or 2 mg/kg midazolam treatment. Responses are expressed as percent of startle response to a 125 dB noise. Two-way ANOVA with post-hoc Sidak's test, *, p<0.05. FIG. 19D: Magnitude of startle response to a 125 dB noise in mice following i.p. administration of saline, midazolam (2 mg/kg) or a peripherally-restricted GABAA receptor agonist, isoguvacine (2 mg/kg). Responses are expressed as percent of startle response to a 125 dB noise. Two-way ANOVA with post-hoc Sidak's test, *, p<0.05. FIGS. 19E-19G: Liquid chromatography mass spectrometry (LC-MS) quantified isoguvacine concentrations in cerebrospinal fluid (CSF) (FIG. 19E), blood (FIG. 19F) or liver (FIG. 19G) samples of mice treated with: i.p. saline, i.p. isoguvacine (“Iso.”, 20 mg/kg, samples collected 1, 3 or 24 hours post-injection), intracerebral injection isoguvacine (20 mg/kg, 1 hour post-injection), i.p. diazepam (“DZ”, 20 mg/kg, 1 hour post injection) or intracerebral injection diazepam (20 mg/kg, 1 hour post injection). FIG. 19H: Normalized peak chloride flux through α1β3γ2- and α2β3γ2-containing GABAA receptors in response to isoguvacine application. […] FIGS. 19I-19K: GABAA receptor subunit RNA expression levels across peripheral somatosensory neuron subtypes, for the alpha (FIG. 19I), beta (FIG. 19J), and gamma (FIG. 19K) subunit types. […] Two-way ANOVA with post-hoc Sidak's test, *, p<0.05. FIG. 19M: Response to a light air puff stimulus alone in mice following i.p. administration of either saline or 2 mg/kg isoguvacine treatment. Responses are expressed as percent of startle response to a 125 dB noise. Two-way ANOVA with post-hoc Sidak's test, *, p<0.05. FIG. 19N: Magnitude of startle response to a 125 dB noise in mice following i.p. administration of either saline or 2 mg/kg isoguvacine treatment. Responses are expressed as percent of startle response to a 125 dB noise. Two-way ANOVA with post-hoc Sidak's test, *, p<0.05.
Results of the GABAA receptor restoration experiments raised the possibility that pharmacological treatment with a GABAA receptor agonist may improve tactile reactivity in Mecp2 mutant mice. It was therefore tested whether benzodiazepines, which are positive allosteric modulators (PAMs) of GABAA receptors, would attenuate hairy skin hypersensitivity in Mecp2 mutant mice. Advillin^Cre; Mecp2^f/y mutant mice and their control littermates were administered either vehicle alone or the benzodiazepine midazolam (2 mg/kg, i.p.) in a pseudorandomized manner, and then subjected to tactile PPI. On the following day, treatment regimens were reversed, and tactile PPI was repeated.
While traditional blood-brain barrier (BBB) penetrating benzodiazepines and non-benzodiazepine GABAA receptor PAMs are useful for treating some ASD-related symptoms in patients, including acute anxiety, significant adverse effects including sedation and addictive potential are common (Gudex, 1991). Furthermore, long-term benzodiazepine use is linked to cognitive impairment across multiple domains, including short-term verbal memory and attention (Golombok et al., 1988; Tata et al., 1994), leading to general reluctance within the medical community for prescribing benzodiazepines and other GABAA receptor PAMs to young children (Howes et al., 2018). […]

Transporter, GABA [2] = biological target: T1, Transporter, GABA (Rattus norvegicus, UniProt P23978); conditions: reference compound, historical value; cited from earlier work
T1 construct: tissue Eurofins Panlabs 226400; host or cells: rat brain membranes (own knowledge of the vendor's assay and of the cited Shank et al. 1990 method)

Transporter, GABA [3] = biological target: T1, Transporter, GABA; assay: GABA transporter radioligand binding assay (Cat # 226400); conditions: reference compound, batch 424211; read-out: Concurrent IC50
Experimental: The activity of compound Compound 5 was evaluated in Radioligand Binding assays. Methods employed herein have been adapted from the scientific literature to maximize reliability and reproducibility. Reference standards were run as an integral part of each assay to ensure the validity of the results obtained. Where presented, IC50 values were determined by a non-linear, least squares regression analysis using MathIQ™ (ID Business Solutions Ltd., UK). Where inhibition constants (K) are presented, the Ki values were calculated using the equation of Cheng and Prusoff (Cheng, Y., Prusoff, W. H., Biochem. Pharmacol. 22:3099-3108, 1973) using the observed IC50 of the tested compound, the concentration of radioligand employed in the assay, and the historical values for the KD of the ligand (obtained experimentally at Eurofins Panlabs, Inc.). Where presented, the Hill coefficient (nH), defining the slope of the competitive binding curve, was calculated using MathIQ™. […] Where IC50, Ki and/or nH data are presented without Standard Error of the Mean (SEM), data are insufficient to be quantitative.
Biochemical assay results are presented as the percent inhibition of specific binding or activity. All other results are expressed in terms of the quantitation method of that assay. For primary assays, only the lowest concentration with a significant response, judged by the criteria of the assay, is shown in this summary. […] Unless otherwise requested, primary screening in duplicate with quantitative data (e.g., IC50±SEM, Ki ±SEM and nH) are shown where applicable for individual requested assays.
J Neurochem. 54:2007-2015.

Row | Compound | tactile sensitivity (tactile PPI) ([1]; Advillin^Cre, Mecp2^f/y mutants and controls) | reduction in startle amplitude (sedation) ([1]; all mice, 125 dB noise) [%] | Historical nH (Transporter, GABA [2]) | IC50 (Transporter, GABA [2]) [nM] | Ki (Transporter, GABA [2]) [nM] | IC50 (Transporter, GABA [3]) [nM]
1 | Cc1ncc2n1-c1ccc(Cl)cc1C(c1ccccc1F)=NC2 [midazolam] | significantly attenuated tactile sensitivity | ~50 |  |  |  | 
2 | O=C(O)C1=CCCN(CCON=C(c2ccccc2)c2ccccc2)C1 [NO-711] |  |  | 1.10 | 200 | 200 | 170
